Results: patent US10561318B2, “Device, system and method for quantifying fluorescence and optical properties” (University Health Network, priority 2010, dated 2020)

Set-up: species or system patients
Procedure: Another example study is now described. In this example study, 14 patients with a variety of intracranial pathologies (including low- and high-grade gliomas, meningioma, and intracranial lung metastases, as indicated in FIG. 17) were administered 20-mg/kg of ALA 3 hours prior to induction of anesthesia. The neurosurgeon performed a conventional standard craniotomy procedure with image-guidance using a surgical microscope modified for PpIX fluorescence. At the surgical bed, the surgeon acquired multiple sets of measurements using an example probe, with corresponding tissue specimens collected and processed for histopathological analysis. […] In addition, the surgeon scored the visible fluorescence as viewed through the fluorescence-capable surgical microscope (scores from 0-4). All specimens were assessed as either normal or abnormal, such that presence of tumor cells was assessed as abnormal.
Receiver-Operator Characteristic Analysis: The receiver-operator characteristic (ROC) curves were generated using the PpIX concentrations as the parameter comparing normal tissue to these tumor populations: all tumors, all gliomas, low-grade gliomas (LGGs), high-grade gliomas (HGGs), meningiomas and metastases. […] The uncorrected fluorescence metric was the magnitude of the PpIX fluorescence peak from the raw fluorescence spectrum, i.e. Fx,m at 635 nm (see Eqs. 1 and 4). […]

In the case of `C=CC1=C(C)c2cc3[nH]c(cc4nc(cc5[nH]c(cc1n2)c(C)c5CCC(=O)O)C(CCC(=O)O)=C4C)c(C)c3C=C` [PpIX, protoporphyrin IX], the “tumor-to-normal (T/N) ratio of in vivo PpIX concentration” value (human) is reported as 200 and the “PpIX in abnormal tissue compared to normal tissue” value (in vivo) is reported as “approximately at least five times more PpIX”.
